Each structure is given as a SMILES string. Like-named read-outs stand apart in the source and are kept apart here.

Data set [1] concerns MDA231-LM2 lung metastatic breast cancer cells. The data set can be described thus: trans-well cell migration assay, 3 μm pore Boyden chamber. Format: cell-based. The conditions noted are these: 24 h pre-treatment, 5 h migration. Here is the method: MDA231-LM2 lung metastatic breast cancer cells were pre-treated with the indicated concentrations of ME or Carboxymethyl-ME for 24 hours. Following the pre-treatment, migration was determined using a Boyden chamber with 3 μm pore size filters. Cells were allowed to migrate for 5 hours through the chamber (in the presence of ME or Carboxymethyl-ME). Cells that traversed the porous membranes were analyzed and scored under a fluorescence microscope. […] The results are expressed as transmigrated cells per optical field. Data are averages of triplicates ±S.D. (See FIG. 6)

Data set [2] deals with MDA231BrM2a cells. In words: cancer cell extravasation through the blood-brain barrier after intracardiac injection. Format: in vivo, mice. The following applies: 20 mg/kg intraperitoneally at days 0, 3 and 5; sacrificed 7 days after inoculation. The method, then:
MDA231BrM2a is a human breast cancer cell line that is metastatic to the brain (Bos et al 2009). These cells stably express a triple fusion protein (thymidinekinase-GFP-luciferase) that allows detection by bioluminesce, and by immunofluorescence with anti-GFP antibodies. Cells (5×10^5 cells) were inoculated into the bloodstream of immunodeficient mice by intracardiac injection. Carboxymethyl-Migraether (cME) was administered (20 mg/kg, intraperitoneally) at days 0, 3 and 5 after injection. Mice were sacrificed 7 days after inoculation. Brains from these mice were serially sectioned (80 μm sections). Anti-GFP immunofluorescence was performed and the number of GFP(+) cells (events) per brain quantified (FIG. 1). The results establish that extravasation of these cancer cells through the blood-brain barrier (BBB) occurs during the first 7 days after inoculation. Therefore, in the experiment of FIG. 1, cME targets cells during the extravasation step.

Data set [3] can be described thus: mouse pharmacokinetics, plasma HPLC-MS/MS. Format: in vivo, mice (B6D2F1). The following applies: for AUC(0-t): 20 mg/kg in 2% GDM-12, read-out: AUC0-24 hr; for half-life: 20 mg/kg in 2% GDM-12, read-out: Half-life (t1/2) (converted). The method, then: Groups of mix gender mice (B6D2F1) were used. Pharmacokinetics (PK) were performed on heparinized mouse plasma samples obtained typically at 0 hr, 0.17 hr, 0.5 hr, 0.75 hr, 1 hr, 2 hr, 4 hr, 8 hr, 16 hr and 24 hr after the bolus intravenous or intraperitoneal injections for CME. Samples were analyzed using a HPLC-MS/MS method. To determine the level of CME, the drug was first isolated from plasma with a sample pre-treatment. Acetonitrile were used to remove proteins in samples. An isocratic HPLC-MS/MS method was then used to separate the drugs from any potential interference. Compound levels were measured by MS detection with a multiple reaction monitoring (MRM) mode. PK data was analyzed using the WinNonlin program (ver. 5.3, Pharsight) compartmental model of analysis.
The hashed line is (A: ip) and the solid line is (B:iv) The drug was administered intravenously or intraperitoneally and the dosing strength was 20 mg/kg.

Data set [4] concerns AC3-TGL cells. In words: human primary SCLC xenograft model, Example 15. Format: in vivo. From the text:
This Example studied whether the ME analog affects tumor metastasis in a human small cell lung cancer (SCLC) primary xenograft model. These cells in primary and subsequent in vivo passages in NOD-SCID mice formed liver metastases. The tumor cells were stably transduced with a triple-fusion protein reporter construct (AC3-TGL), and were transplanted by subcutaneous injection with matrigel into NOD/SCID IL2R gamma null (NSG) mice. Started 1 day prior the inoculation of tumor cells, ME treatment was initiated by intraperitoneal injection at 40 mg/kg (ME40) or 200 mg/kg (ME200) three times a week in groups of 5 mice. Control mice were treated with DMSO vehicle. Tumor burden and metastatic spread were monitored every 5 days by serial non-invasive bioluminescent imaging. […] At the endpoint, the potential metastatic sites (liver, lung, spleen, heart and kidney, gastrointestinal tract) were surgically resected and the luciferase activity quantified by ex-vivo bioluminescence imaging (FIG. 5b).
For the results depicted in FIGS. 5a-c, AC3-TGL cells were transplanted by subcutaneous ventral injection into NSG mice. Xenografted mice were treated with indicated dosages of ME every 3 days started from day −1 after tumor inoculation: 40 mg/kg (ME40, n=5), 200 mg/kg (ME200, n=5)) and DMSO vehicle (Control, n=5). At day 45, the mice were sacrificed. Three mice in the ME200 group died before the end of treatment, at day 23, 30 and 34. (A) Tumor growth. Every 5 days, the tumor burden was monitored by in vivo Bioluminescence Imaging (BI) and data is expressed as photon flux (flux in photon/sec)+/−SEM in log scale. (B, C) Tumor metastasis at endpoint. At day 45, mice were analyzed for metastasis by ex vivo BI quantifying luciferase activity in the excised lungs (Lu), liver (Li), heart (H), kidneys (K) and the spleen (S). Measurements for each mouse are presented on the panel B (circles), with the average per group (short line) and expressed as photon flux (flux in photon/sec) in log scale. P-values were obtained using two-tailed Mann-Whitney U-test. Pictures of bioluminescence signal measured on the organs from 1 mouse of each group are presented on the panel C. Each picture is presented with the same settings (4 min exposure; photon signal; color scale from 5.E6 (min) to 1.E8 (max)).
Xenograft Model for Example 15: A human primary SCLC xenograft model was developed in 10-14 weeks old male non-obese diabetic severe combined immunodeficient (NOD/SCID) Interleukin-2 gamma Chain Receptor Null Mice (NSG). Primary tumor samples were obtained after patient informed consent. AC3-TGL primary cells growing as clumps were processed into a single-cell suspension by Trypsin/Collagenase IV (Invitrogen) sequential treatment and filtrated as described above. Xenografts were performed by subcutaneous ventral injection of 10^3 AC3-TGL cells in serum-free medium mixed with Matrigel (Becton Dickinson). One day prior to the tumor cell injection, mice were pretreated with Migrastatin Ether (ME) compounds at a dose of either 40 mg/kg or 200 mg/kg per mouse or with DMSO vehicle control (n≧5 mice per group). […] During this time, the tumor burden and metastatic spread were monitored by bioluminescence imaging (BLI) every 5 days. At day 45 (endpoint), the mice were killed and the metastatic spread of tumor cells to the lungs, liver, heart, kidneys, spleen and GI tract was assessed by ex-vivo BLI on the removed organs.

[5] abbreviates: both sexes, B6D2F1, plasma, ip, 20 mg/kg in 2% GDM-12.
Setting [6] is: both sexes, B6D2F1, plasma, iv, 20 mg/kg in 2% GDM-12.

Turning to `CO[C@H]1/C=C/CCCCCOC/C(C)=C\[C@@H](C)[C@@H]1OCC(=O)O` [CME, Carboxymethyl migraether], the “potency relative to ME at inhibiting migration” value in data set [1] is listed as “approximately 20 fold”. Also, in data set [2], the “reduction in the number of events (GFP(+) cells) per brain” value is on record as “two-fold reduction”. Moreover, in data set [3] (setting [5]), the total exposure AUC(0-inf) turned out to be 27900 ng·h/mL, the peak level (Cmax) was 369 ng/mL and the bioavailability stood at 77.8%. Moreover, in data set [3] (both sexes, B6D2F1, plasma, ip), the AUC(0-t) came out at 27800 ng·h/mL and the half-life was 2.4 h. In data set [3] (setting [6]), this compound had an area under the curve AUC(0-inf) of 36000 ng·h/mL, a Cmax of 1540 ng/mL and a clearance of 9.25 mL/min/kg. Moreover, in data set [3] (both sexes, B6D2F1, plasma, iv), the AUC(0-t) stood at 35700 ng·h/mL and the half-life is 2.9 h. Besides, the CL in data set [3] (ip, 20 mg/kg in 2% GDM-12) turned out to be 11.96 mL/min/kg.
As to `CO[C@H]1/C=C/CCCCCOC/C(C)=C\[C@@H](C)[C@@H]1O` [ME, migrastatin ether], in data set [4] (40 mg/kg i.p. every 3 days, day 45, vs control), the “decrease of overall metastasis” value was found to be 93%. In data set [4] (200 mg/kg group of 5), the “mice died before the endpoint” value turned out to be 3 mice. This compound gave a metastasis inhibition in data set [4] (200 mg/kg i.p. every 3 days, day 45, 2 surviving mice) of 99%. Further, the “side effects in surviving mice” value in data set [4] (200 mg/kg, 2 surviving mice, after 45 days of treatment) was “no body-weight loss, lethargy or other obvious side effects”. The “tumor growth kinetics at the primary site of injection” value in data set [4] (40 or 200 mg/kg i.p.) was “did not significantly interfere”.

A word on the AUC(0-inf): it is total exposure, with the tail of the curve extrapolated. Read a low AUC(0-inf) as less exposure. What is called Cmax is the highest concentration seen after dosing. Usually bioavailability stands for dose-corrected exposure relative to a reference, in per cent. Low values mean poor availability, high ones good availability. By clearance is commonly meant the volume of plasma or blood freed of the substance per unit of time. Read a low clearance as a low capacity for elimination.

The record behind these values is patent US9303009B2, “Migrastatins and uses thereof” (Sloan-Kettering Institute for Cancer Research, priority 2011, dated 2016).
